From patent US11766628B2, “Purification and extraction of cannabinoids” (CHEMTOR, LP, priority 2020, dated 2023)

Assay: Partition of cannabinoids between degummed cannabis oil miscella and water/ethanol/base extraction solvent in a fiber conduit contactor
Type: physicochemical
Parameters: scale not given here
Source text: Degummed miscella from Example 1A were used to investigate the extraction of acid cannabinoids into a water/ethanol solvent using a fiber conduit contactor. Bases tested included sodium bicarbonate (NaHCO3), sodium carbonate (Na2CO3), potassium bicarbonate (KHCO3), and potassium carbonate (K2CO3). The hardness difference between a sodium and potassium radii (smaller radii are harder, larger radii are softer) creates a variation in the property of the resulting soaps. Sodium salts give a so-called “harder” soap that is more likely to be rejected from the crude miscella. Switching from bicarbonate to carbonate has two effects: (1) higher ion count in solution, thereby increasing ionic strength/polarity; and (2) increasing the pH by approximately 1 pH unit for the same wt % solution. This increased polarity can be used to enforce selectivity of the desired compounds.
As shown in the results below, there are multiple options for extracting specific combinations of cannabinoids. The bicarbonate bases gave a preference to acid cannabinoids, whereas the stronger carbonate bases were able to increase the total mass transfer. These parameters can be used to control the outflow product streams. The partition coefficients for various combinations are summarized in Table 3 and can be used to determine the optimal extraction solvent for a target compound or goal.
In Table 3 above, the Examples are ordered by decreasing polarity from top to bottom. A lower number specifies a preference for extraction and a high number specifies a preference to remain in the neutral oil. Blank squares are where coefficients could not be calculated.

[1] = Base K2CO3, H2O/EtOH/Base (wt %) 68.3/29.1/2.5
[2] = Base K2CO3, H2O/EtOH/Base (wt %) 77.9/19.5/2.6
[3] = Base K2CO3, H2O/EtOH/Base (wt %) 82.8/14.7/2.5
[4] = Base K2CO3, H2O/EtOH/Base (wt %) 87.5/10/2.5
[5] = Base Na2CO3, H2O/EtOH/Base (wt %) 68.4/29.1/2.5
[6] = Base Na2CO3, H2O/EtOH/Base (wt %) 73.2/24.2/2.6
[7] = Base Na2CO3, H2O/EtOH/Base (wt %) 77.6/19.9/2.5
[8] = Base Na2CO3, H2O/EtOH/Base (wt %) 82.9/14.5/2.6
[9] = Base Na2CO3, H2O/EtOH/Base (wt %) 87.8/9.7/2.6
[10] = Base NaHCO3, H2O/EtOH/Base (wt %) 67.8/29.7/2.4, lower = preference for extraction, higher = remains in neutral oil
[11] = Base NaHCO3, H2O/EtOH/Base (wt %) 72.9/24.6/2.5
[12] = Base NaHCO3, H2O/EtOH/Base (wt %) 77.9/19.6/2.5
[13] = Base NaHCO3, H2O/EtOH/Base (wt %) 81.2/16.3/2.5
[14] = Base NaHCO3, H2O/EtOH/Base (wt %) 879./9.7/2.4
[15] = Base KHCO3, H2O/EtOH/Base (wt %) 68.1/29.4/2.6
[16] = Base KHCO3, H2O/EtOH/Base (wt %) 73.1/24.3/2.6
[17] = Base K2CO3, H2O/EtOH/Base (wt %) 73.0/24.5/2.5
[18] = Base KHCO3, H2O/EtOH/Base (wt %) 78.0/19.5/2.5
[19] = Base KHCO3, H2O/EtOH/Base (wt %) 82.7/14.8/2.5
[20] = Base NaHCO3, H2O/EtOH/Base (wt %) 68.4/29.5/2.0
[21] = Base NaHCO3, H2O/EtOH/Base (wt %) 69.0/29.6/1.5
[22] = Base NaHCO3, H2O/EtOH/Base (wt %) 69.9/29.9/0.25

| Compound | Partition coefficient [1] | Partition coefficient [2] | Partition coefficient [3] | Partition coefficient [4] | Partition coefficient [5] | Partition coefficient [6] | Partition coefficient [7] | Partition coefficient [8] | Partition coefficient [9] | Partition coefficient [10] | Partition coefficient [11] | Partition coefficient [12] | Partition coefficient [13] | Partition coefficient [14] | Partition coefficient [15] | Partition coefficient [16] | Partition coefficient [18] | Partition coefficient [19] | also measured |
| --- | --- | --- | --- | --- | --- | --- | --- | --- | --- | --- | --- | --- | --- | --- | --- | --- | --- | --- | --- |
| CCCCCc1cc(O)c2c(c1)OC(C)(CCC=C(C)C)C=C2 (stereo not shown) [CBC, cannabichromene] | 0.6 | 0.23 | 0.23 | 0.16 | −0.2 | −0.16 | −0.21 | −0.14 | 0.22 | 0.54 | 0.83 | 1.42 | 1.33 | 1.21 |  |  |  |  |  |
| CCCCCc1cc2c(c(O)c1C(=O)O)C=CC(C)(CCC=C(C)C)O2 (stereo not shown) [CBCA, cannabichromenic acid] | 0.22 | −0.29 | −0.25 | −0.2 | 0.93 | 1.09 | 1.08 | 1.15 | 1.48 | 0.57 | 1.14 |  | 1.24 | 1.17 | 2.09 | 2.59 |  |  |  |
| C=C(C)[C@@H]1CCC(C)=C[C@H]1c1c(O)cc(CCCCC)cc1O [CBD, cannabidiol, reference compound] | 0.55 | 0.19 | 0.19 | 0.1 | −0.87 | −0.86 | −0.94 | −0.9 | −0.55 | 0.48 | 0.78 | 1.29 | 1.25 | 1.14 | 0.6 | 1.06 | 1.59 | 1.43 | Partition coefficient [17]: 0.87; Partition coefficient [20]: 1.4; Partition coefficient [21]: 1.86 |
| C=C(C)[C@@H]1CCC(C)=C[C@H]1c1c(O)cc(CCCCC)c(C(=O)O)c1O [CBDA, cannabidiolic acid] | 0.04 | −0.16 | −0.08 | 0 | −2.37 | −2.22 | −2.22 | −2.11 | −1.75 | 0.43 | 0.68 | 1.09 | 1.05 | 0.96 | −1.02 | −0.59 | 0.04 | 0.21 | Partition coefficient [17]: 0.45; Partition coefficient (Base KHCO3, H2O/EtOH/Base (wt %) 86.3/11.3/2.5): 0.19; Partition coefficient [20]: −0.19; Partition coefficient [21]: 0.1; Partition coefficient (Base NaHCO3, H2O/EtOH/Base (wt %) 69.2/29.8/1.0): 0.22; Partition coefficient [22]: 0.38 |
| CCCCCc1cc(O)c(C/C=C(\C)CCC=C(C)C)c(O)c1 [CBG, cannabigerol] |  | 0.01 | 0.05 | −0.07 | 1.58 | 1.6 | 1.53 | 1.59 | 1.91 | 0.46 | 0.76 |  |  |  |  |  |  |  | Partition coefficient [22]: 2.62 |
| CCCCCc1cc(O)c(C/C=C(\C)CCC=C(C)C)c(O)c1C(=O)O [CBGA, cannabigerolic acid] | 0.15 | −0.19 | −0.15 | −0.1 | −0.57 | −0.47 | −0.5 | −0.44 | −0.14 | 0.46 | 0.76 | 1.2 | 1.19 | 1.1 | 0.33 | 0.72 | 1.4 | 1.61 |  |
| CCCCCc1cc(O)c2c(c1)OC(C)(C)[C@@H]1CCC(C)=C[C@@H]21 [THC, tetrahydrocannabinol, reference compound] | 0.59 | 0.1 | 0.09 | 0.13 | 0.22 | 0.2 | 0.1 | 0.13 | 0.47 | 0.77 | 1.03 | 1.43 | 1.28 | 1.17 |  |  |  |  |  |
| CCCCCc1cc2c(c(O)c1C(=O)O)[C@@H]1C=C(C)CC[C@H]1C(C)(C)O2 [THCA, tetrahydrocannabinolic acid] | 0.28 | −0.09 | −0.05 | 0.15 | −0.18 | −0.02 | −0.02 | 0.06 | 0.41 | 0.91 | 1 | 1.33 | 1.16 | 1.12 | 1.26 | 1.76 |  |  |  |
